Test results taken from paper PMC6407913, “DREADD Agonist 21 Is an Effective Agonist for Muscarinic-Based DREADDs in Vitro and in Vivo” (ACS Pharmacology & Translational Science, 2018).
Several values for one entry are separate records, joined by “and”; a condition that tells them apart may be missing. Equal entries are not always repeated. Where two headings read alike, the source gives them in different places.

Key:
Type in all cases: cell-based
[1] = molecular target: 318 nonolfactory human GPCRs (Homo sapiens, UniProt P25025); conditions: CXCR2; C21 5 µM
[2] = molecular target: T1, 318 nonolfactory human GPCRs (Homo sapiens, UniProt Q9H244); conditions: P2RY12; C21 5 µM
T1 construct: expressed in transfected cells; host or cells: HTLA cells, transient

[3] = molecular target: T2, 318 nonolfactory human GPCRs (Homo sapiens, UniProt Q8TDV2); conditions: GPR148; C21 5 µM
T2 construct: expressed in transfected cells; host or cells: HTLA cells, transient

[4] = molecular target: T3, 318 nonolfactory human GPCRs (Homo sapiens, UniProt Q13639); conditions: HTR4; C21 5 µM
T3 construct: expressed in transfected cells; host or cells: HTLA cells, transient

[5] = molecular target: T4, 318 nonolfactory human GPCRs (Homo sapiens, UniProt P50052); conditions: AGTR2; C21 5 µM
T4 construct: expressed in transfected cells; host or cells: HTLA cells, transient

[6] = molecular target: T5, 318 nonolfactory human GPCRs (Homo sapiens, UniProt Q14330); conditions: GPR18; C21 5 µM
T5 construct: expressed in transfected cells; host or cells: HTLA cells, transient

[7] = molecular target: T6, 318 nonolfactory human GPCRs (Homo sapiens, UniProt P20309); conditions: CHRM3; C21 5 µM
T6 construct: expressed in transfected cells; host or cells: HTLA cells, transient

[8] = molecular target: T7, 318 nonolfactory human GPCRs (Homo sapiens, UniProt Q9BXC0); conditions: HCA1; C21 5 µM
T7 construct: expressed in transfected cells; host or cells: HTLA cells, transient

[9] = system: 318 nonolfactory human GPCRs; conditions: for FOLD OVER BASAL: C21 5 µM
[10] = molecular target: T8, 318 nonolfactory human GPCRs (Homo sapiens, UniProt Q9BPV8); conditions: P2RY13; C21 5 µM
T8 construct: expressed in transfected cells; host or cells: HTLA cells, transient

[11] = molecular target: T9, 318 nonolfactory human GPCRs (Homo sapiens, UniProt P25089); conditions: FPR3; C21 5 µM
T9 construct: expressed in transfected cells; host or cells: HTLA cells, transient

[12] = molecular target: T10, 318 nonolfactory human GPCRs (Homo sapiens, UniProt O15552); conditions: FFA2; C21 5 µM
T10 construct: expressed in transfected cells; host or cells: HTLA cells, transient

[13] = molecular target: T11, 318 nonolfactory human GPCRs (Homo sapiens, UniProt O14842); conditions: FFA1; C21 5 µM
T11 construct: expressed in transfected cells; host or cells: HTLA cells, transient

[14] = molecular target: T12, 318 nonolfactory human GPCRs (Homo sapiens, UniProt O95838); conditions: GLP2R; C21 5 µM
T12 construct: expressed in transfected cells; host or cells: HTLA cells, transient

[15] = molecular target: 318 nonolfactory human GPCRs (Homo sapiens, UniProt P48546); conditions: GIPR; C21 5 µM
[16] = molecular target: 318 nonolfactory human GPCRs (Homo sapiens, UniProt P21918); conditions: DRD5; C21 5 µM
[17] = molecular target: T13, 318 nonolfactory human GPCRs (Homo sapiens, UniProt Q92847); conditions: GHSR; C21 5 µM
T13 construct: expressed in transfected cells; host or cells: HTLA cells, transient

[18] = molecular target: T14, 318 nonolfactory human GPCRs (Homo sapiens, UniProt P25024); conditions: CXCR1; C21 5 µM
T14 construct: expressed in transfected cells; host or cells: HTLA cells, transient

[19] = molecular target: T15, 318 nonolfactory human GPCRs (Homo sapiens, UniProt P25116); conditions: F2R; C21 5 µM
T15 construct: expressed in transfected cells; host or cells: HTLA cells, transient

[20] = molecular target: 318 nonolfactory human GPCRs (Homo sapiens, UniProt P30872); conditions: SSTR1; C21 5 µM
[21] = molecular target: T16, 318 nonolfactory human GPCRs (Homo sapiens, UniProt Q9Y5Y4); conditions: GPR44; C21 5 µM
T16 construct: expressed in transfected cells; host or cells: HTLA cells, transient

[22] = molecular target: T17, 318 nonolfactory human GPCRs (Homo sapiens, UniProt Q9BY21); conditions: GPR87; C21 5 µM
T17 construct: expressed in transfected cells; host or cells: HTLA cells, transient

[23] = molecular target: 318 nonolfactory human GPCRs (Homo sapiens, UniProt P61073); conditions: CXCR4; C21 5 µM
[24] = molecular target: T18, 318 nonolfactory human GPCRs (Homo sapiens, UniProt Q9GZQ6); conditions: NPFF1; C21 5 µM
T18 construct: expressed in transfected cells; host or cells: HTLA cells, transient

[25] = molecular target: T19, 318 nonolfactory human GPCRs (Homo sapiens, UniProt P46663); conditions: BDKBR1; C21 5 µM
T19 construct: expressed in transfected cells; host or cells: HTLA cells, transient

[26] = molecular target: T20, 318 nonolfactory human GPCRs (Homo sapiens, UniProt Q86SQ6); conditions: GPR123; C21 5 µM
T20 construct: expressed in transfected cells; host or cells: HTLA cells, transient

[27] = molecular target: T21, 318 nonolfactory human GPCRs (Homo sapiens, UniProt Q9Y5Y3); conditions: GPR45; C21 5 µM
T21 construct: expressed in transfected cells; host or cells: HTLA cells, transient

[28] = molecular target: T22, 318 nonolfactory human GPCRs (Homo sapiens, UniProt O00155); conditions: GPR25; C21 5 µM
T22 construct: expressed in transfected cells; host or cells: HTLA cells, transient

[29] = molecular target: 318 nonolfactory human GPCRs (Homo sapiens, UniProt Q9UPC5); conditions: GPR34; C21 5 µM
[30] = molecular target: T23, 318 nonolfactory human GPCRs (Homo sapiens, UniProt Q9H1C0); conditions: LPAR5; C21 5 µM
T23 construct: expressed in transfected cells; host or cells: HTLA cells, transient

[31] = molecular target: T24, 318 nonolfactory human GPCRs (Homo sapiens, UniProt Q9H1Y3); conditions: OPN3; C21 5 µM
T24 construct: expressed in transfected cells; host or cells: HTLA cells, transient

[32] = molecular target: T25, 318 nonolfactory human GPCRs (Homo sapiens, UniProt O14626); conditions: GPR171; C21 5 µM
T25 construct: expressed in transfected cells; host or cells: HTLA cells, transient

[33] = molecular target: T26, 318 nonolfactory human GPCRs (Homo sapiens, UniProt O95800); conditions: GPR75; C21 5 µM
T26 construct: expressed in transfected cells; host or cells: HTLA cells, transient

T21 sequence (Q9Y5Y3 whole entry): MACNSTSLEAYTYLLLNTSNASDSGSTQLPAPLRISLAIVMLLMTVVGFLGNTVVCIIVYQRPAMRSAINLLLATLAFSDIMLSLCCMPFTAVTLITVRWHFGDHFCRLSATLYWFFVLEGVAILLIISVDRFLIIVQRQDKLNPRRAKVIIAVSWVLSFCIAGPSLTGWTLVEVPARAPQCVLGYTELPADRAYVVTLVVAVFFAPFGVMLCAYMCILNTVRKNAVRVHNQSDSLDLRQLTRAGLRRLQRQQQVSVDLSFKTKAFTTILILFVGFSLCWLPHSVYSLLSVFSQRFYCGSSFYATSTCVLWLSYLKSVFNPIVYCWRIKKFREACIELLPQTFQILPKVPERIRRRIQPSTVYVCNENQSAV
Sequence of 318 nonolfactory human GPCRs (Homo sapiens, UniProt Q9UPC5) (Q9UPC5 whole entry): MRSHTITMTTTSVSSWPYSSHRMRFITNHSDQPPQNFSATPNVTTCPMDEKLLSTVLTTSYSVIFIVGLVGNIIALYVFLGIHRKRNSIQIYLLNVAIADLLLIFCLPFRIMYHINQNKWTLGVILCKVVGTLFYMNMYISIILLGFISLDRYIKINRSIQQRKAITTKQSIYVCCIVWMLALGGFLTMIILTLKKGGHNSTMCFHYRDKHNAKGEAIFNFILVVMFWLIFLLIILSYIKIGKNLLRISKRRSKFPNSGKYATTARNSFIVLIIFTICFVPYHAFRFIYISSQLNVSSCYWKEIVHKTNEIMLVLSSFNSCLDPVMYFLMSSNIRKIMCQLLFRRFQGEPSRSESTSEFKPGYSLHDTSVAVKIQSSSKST
T6 sequence (P20309 whole entry): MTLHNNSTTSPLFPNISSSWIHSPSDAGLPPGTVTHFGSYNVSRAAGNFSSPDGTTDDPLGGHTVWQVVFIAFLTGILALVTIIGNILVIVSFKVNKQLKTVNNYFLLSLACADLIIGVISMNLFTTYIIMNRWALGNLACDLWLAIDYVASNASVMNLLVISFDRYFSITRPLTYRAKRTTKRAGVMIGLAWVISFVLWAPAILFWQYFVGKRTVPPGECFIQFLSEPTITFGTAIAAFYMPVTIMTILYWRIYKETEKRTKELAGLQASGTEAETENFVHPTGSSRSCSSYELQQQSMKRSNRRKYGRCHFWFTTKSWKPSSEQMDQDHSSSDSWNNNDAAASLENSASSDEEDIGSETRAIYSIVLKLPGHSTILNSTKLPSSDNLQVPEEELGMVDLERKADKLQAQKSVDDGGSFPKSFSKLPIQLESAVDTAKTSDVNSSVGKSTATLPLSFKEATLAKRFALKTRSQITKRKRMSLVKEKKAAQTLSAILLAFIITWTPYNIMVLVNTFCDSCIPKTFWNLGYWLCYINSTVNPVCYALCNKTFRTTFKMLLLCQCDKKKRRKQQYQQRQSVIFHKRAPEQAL
T18 sequence (Q9GZQ6 whole entry): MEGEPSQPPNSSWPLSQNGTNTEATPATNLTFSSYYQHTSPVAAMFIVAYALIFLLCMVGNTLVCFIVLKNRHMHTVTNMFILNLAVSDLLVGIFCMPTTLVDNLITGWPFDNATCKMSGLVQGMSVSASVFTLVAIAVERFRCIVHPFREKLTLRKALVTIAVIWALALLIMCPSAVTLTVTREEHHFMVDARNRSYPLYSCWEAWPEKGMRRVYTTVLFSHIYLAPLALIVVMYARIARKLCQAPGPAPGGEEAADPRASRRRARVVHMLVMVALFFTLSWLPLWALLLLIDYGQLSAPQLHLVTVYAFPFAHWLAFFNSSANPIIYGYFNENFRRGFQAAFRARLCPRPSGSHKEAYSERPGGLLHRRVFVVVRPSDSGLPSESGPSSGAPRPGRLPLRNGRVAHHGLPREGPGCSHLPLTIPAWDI
T12 sequence (O95838 whole entry): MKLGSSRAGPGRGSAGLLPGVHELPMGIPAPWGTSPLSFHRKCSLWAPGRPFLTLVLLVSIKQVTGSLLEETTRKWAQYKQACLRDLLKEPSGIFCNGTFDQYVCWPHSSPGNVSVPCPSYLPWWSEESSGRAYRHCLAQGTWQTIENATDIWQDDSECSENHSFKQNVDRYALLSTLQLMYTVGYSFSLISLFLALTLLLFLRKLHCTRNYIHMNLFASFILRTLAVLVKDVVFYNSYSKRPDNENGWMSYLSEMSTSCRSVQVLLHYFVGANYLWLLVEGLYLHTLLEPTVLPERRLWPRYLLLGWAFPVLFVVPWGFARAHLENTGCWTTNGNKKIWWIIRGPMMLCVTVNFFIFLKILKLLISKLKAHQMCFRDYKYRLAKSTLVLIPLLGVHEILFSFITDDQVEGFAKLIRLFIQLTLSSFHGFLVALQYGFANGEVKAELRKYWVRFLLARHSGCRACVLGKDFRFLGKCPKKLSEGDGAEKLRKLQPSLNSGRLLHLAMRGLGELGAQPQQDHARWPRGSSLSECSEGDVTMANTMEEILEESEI
T5 sequence (Q14330 whole entry): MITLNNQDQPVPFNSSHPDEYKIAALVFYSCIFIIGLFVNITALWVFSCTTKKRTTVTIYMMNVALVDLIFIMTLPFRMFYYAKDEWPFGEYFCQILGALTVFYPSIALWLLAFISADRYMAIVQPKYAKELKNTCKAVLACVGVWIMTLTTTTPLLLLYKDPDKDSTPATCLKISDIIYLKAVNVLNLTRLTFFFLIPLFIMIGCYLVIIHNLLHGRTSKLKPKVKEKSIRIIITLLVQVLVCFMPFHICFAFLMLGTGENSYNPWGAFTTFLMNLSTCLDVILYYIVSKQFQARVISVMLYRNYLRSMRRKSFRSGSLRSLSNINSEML
T15 sequence (P25116 22-425): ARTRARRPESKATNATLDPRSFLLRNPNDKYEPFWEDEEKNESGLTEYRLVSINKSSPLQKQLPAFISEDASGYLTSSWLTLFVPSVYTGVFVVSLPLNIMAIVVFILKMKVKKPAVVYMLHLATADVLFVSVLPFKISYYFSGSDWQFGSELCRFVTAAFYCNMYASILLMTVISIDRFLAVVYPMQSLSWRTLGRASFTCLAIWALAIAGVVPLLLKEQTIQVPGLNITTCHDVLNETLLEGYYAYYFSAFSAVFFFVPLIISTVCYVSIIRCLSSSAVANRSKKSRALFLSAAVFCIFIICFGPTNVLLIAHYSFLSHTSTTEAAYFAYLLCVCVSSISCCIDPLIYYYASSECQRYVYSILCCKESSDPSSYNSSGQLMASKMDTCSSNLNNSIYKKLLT
T8 sequence (Q9BPV8 whole entry): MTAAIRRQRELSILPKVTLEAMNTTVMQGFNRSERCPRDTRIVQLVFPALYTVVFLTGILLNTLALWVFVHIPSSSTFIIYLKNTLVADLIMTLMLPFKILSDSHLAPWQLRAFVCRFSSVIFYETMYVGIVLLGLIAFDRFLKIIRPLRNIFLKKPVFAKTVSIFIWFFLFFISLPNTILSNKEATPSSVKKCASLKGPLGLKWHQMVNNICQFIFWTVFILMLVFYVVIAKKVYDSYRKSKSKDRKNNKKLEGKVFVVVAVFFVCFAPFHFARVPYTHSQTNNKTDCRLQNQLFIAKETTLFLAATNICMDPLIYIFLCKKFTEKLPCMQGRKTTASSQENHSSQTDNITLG
Sequence of 318 nonolfactory human GPCRs (Homo sapiens, UniProt P30872) (P30872 whole entry): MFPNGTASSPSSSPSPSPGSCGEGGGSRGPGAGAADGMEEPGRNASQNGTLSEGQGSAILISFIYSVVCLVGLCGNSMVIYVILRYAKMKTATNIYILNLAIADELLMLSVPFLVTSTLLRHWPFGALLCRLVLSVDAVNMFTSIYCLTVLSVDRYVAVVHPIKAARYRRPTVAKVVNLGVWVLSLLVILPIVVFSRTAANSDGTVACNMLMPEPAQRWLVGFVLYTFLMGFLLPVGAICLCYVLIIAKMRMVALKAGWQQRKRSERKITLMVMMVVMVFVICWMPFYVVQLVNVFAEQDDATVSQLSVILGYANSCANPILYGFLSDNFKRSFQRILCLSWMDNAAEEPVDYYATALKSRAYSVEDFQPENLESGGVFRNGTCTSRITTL
T14 sequence (P25024 whole entry): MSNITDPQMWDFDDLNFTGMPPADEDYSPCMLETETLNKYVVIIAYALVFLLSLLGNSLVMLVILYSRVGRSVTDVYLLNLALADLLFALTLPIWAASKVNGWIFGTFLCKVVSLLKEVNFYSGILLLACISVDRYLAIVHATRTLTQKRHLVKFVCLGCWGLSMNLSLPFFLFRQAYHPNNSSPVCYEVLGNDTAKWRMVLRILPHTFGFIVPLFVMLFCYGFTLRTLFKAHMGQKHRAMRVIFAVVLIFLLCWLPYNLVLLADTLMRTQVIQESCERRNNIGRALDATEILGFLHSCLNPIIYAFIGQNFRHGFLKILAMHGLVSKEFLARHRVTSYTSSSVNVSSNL
T17 sequence (Q9BY21 whole entry): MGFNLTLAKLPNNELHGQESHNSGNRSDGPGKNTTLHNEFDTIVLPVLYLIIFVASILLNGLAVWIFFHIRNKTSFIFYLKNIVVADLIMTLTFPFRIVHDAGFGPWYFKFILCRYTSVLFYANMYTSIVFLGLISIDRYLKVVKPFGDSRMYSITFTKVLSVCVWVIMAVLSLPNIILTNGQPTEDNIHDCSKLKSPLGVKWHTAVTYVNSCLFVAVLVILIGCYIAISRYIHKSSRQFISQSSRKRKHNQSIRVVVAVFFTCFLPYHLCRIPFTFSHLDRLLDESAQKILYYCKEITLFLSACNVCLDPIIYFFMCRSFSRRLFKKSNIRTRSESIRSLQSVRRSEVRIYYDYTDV
T11 sequence (O14842 whole entry): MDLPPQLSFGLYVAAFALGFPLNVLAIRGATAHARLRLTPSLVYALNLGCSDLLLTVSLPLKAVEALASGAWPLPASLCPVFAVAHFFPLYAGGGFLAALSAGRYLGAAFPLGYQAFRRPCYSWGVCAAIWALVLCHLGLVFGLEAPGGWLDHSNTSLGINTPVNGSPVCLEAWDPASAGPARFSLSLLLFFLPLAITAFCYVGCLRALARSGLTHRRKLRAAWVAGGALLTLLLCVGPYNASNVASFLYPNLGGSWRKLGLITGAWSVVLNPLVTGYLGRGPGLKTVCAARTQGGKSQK

c1ccc2c(c1)N=C(N1CCNCC1)c1ccccc1N2 [C21, 11-(1-piperazinyl)-5H-dibenzo[b,e][1,4]diazepine] was tested, and the “FOLD OVER BASAL” value [1] was 0.9 fold and 1 fold, the “FOLD OVER BASAL” value [2] was 0.6 fold and 1 fold and 0.5 fold and 0.8 fold and the “FOLD OVER BASAL” value [3] was 0.9 fold and 0.6 fold and 0.5 fold and 1 fold. For the same compound, the “FOLD OVER BASAL” value [4] was 1.2 fold and 0.8 fold, the “FOLD OVER BASAL” value [5] was 1.1 fold and 0.9 fold and 1 fold and the “FOLD OVER BASAL” value [6] was 0.8 fold and 1.1 fold and 0.7 fold. The “FOLD OVER BASAL” value [7] was 3.1 fold and 3.7 fold and 2.6 fold and 3.4 fold, the “FOLD OVER BASAL” value [8] was 1.8 fold and 1.3 fold and 1.7 fold and 0.9 fold and the “FOLD OVER BASAL” value ([9]; CALCRb) was 0.8 fold and 0.6 fold and 0.5 fold. For the same compound, the “FOLD OVER BASAL” value ([9]; GAL2) was 1.2 fold and 0.9 fold and 1.3 fold, the “FOLD OVER BASAL” value ([9]; GAL3) was 1.1 fold and 0.7 fold and 0.9 fold and the “FOLD OVER BASAL” value ([9]; HCTR2) was 1.1 fold and 0.8 fold and 0.6 fold. The “FOLD OVER BASAL” value ([9]; PK1) was 1.3 fold and 1.4 fold and 0.8 fold and 1.5 fold, the “FOLD OVER BASAL” value ([9]; PRRP) was 1 fold and 0.9 fold and 0.6 fold and the “agonist activity at GPCRome (fold of basal)” value ([9]; single concentration 5 μM, PRESTO-Tango, quadruplicate) was “agonist activity only at M4-, D2-, and H4-histamine receptors”. For the same compound, the “FOLD OVER BASAL” value [10] was 0.8 fold and 1 fold and 1.2 fold, the “FOLD OVER BASAL” value [11] was 1.2 fold and 0.9 fold and 1.1 fold and 1 fold and the “FOLD OVER BASAL” value [12] was 0.9 fold and 0.8 fold and 0.6 fold. For the same compound, the “FOLD OVER BASAL” value [13] was 0.4 fold and 0.7 fold and 0.8 fold, the “FOLD OVER BASAL” value [14] was 0.7 fold and 0.8 fold and 0.5 fold and 0.9 fold and the “FOLD OVER BASAL” value [15] was 0.3 fold and 0.4 fold. For the same compound, the “FOLD OVER BASAL” value [16] was 0.8 fold and 0.7 fold, the “FOLD OVER BASAL” value [17] was 0.9 fold and 1 fold and the “FOLD OVER BASAL” value [18] was 0.6 fold and 1 fold and 0.8 fold and 1.1 fold. The “FOLD OVER BASAL” value [19] was 0.8 fold and 0.9 fold and 0.6 fold, the “FOLD OVER BASAL” value [20] was 1 fold and 0.6 fold and 0.8 fold and the “FOLD OVER BASAL” value [21] was 1.3 fold and 2.1 fold and 1.5 fold and 1.4 fold. For the same compound, the “FOLD OVER BASAL” value [22] was 0.9 fold and 0.8 fold and 1 fold, the “FOLD OVER BASAL” value [23] was 0.7 fold and 1 fold and 0.9 fold and the “FOLD OVER BASAL” value [24] was 1.5 fold and 1.1 fold and 1.2 fold. The “FOLD OVER BASAL” value [25] was 0.6 fold and 0.3 fold, the “FOLD OVER BASAL” value [26] was 1.2 fold and 0.7 fold and 1.1 fold and 0.9 fold and the “FOLD OVER BASAL” value [27] was 0.8 fold and 0.6 fold and 1 fold. For the same compound, the “FOLD OVER BASAL” value [28] was 0.9 fold and 1.1 fold, the “FOLD OVER BASAL” value [29] was 1.2 fold and 1.1 fold and 1.4 fold and the “FOLD OVER BASAL” value [30] was 0.8 fold and 1.2 fold and 0.6 fold and 0.7 fold. For the same compound, the “FOLD OVER BASAL” value [31] was 1.1 fold and 0.7 fold and 0.9 fold and 0.6 fold, the “FOLD OVER BASAL” value [32] was 0.6 fold and 0.5 fold and 0.8 fold and the “FOLD OVER BASAL” value [33] was 1.1 fold and 0.8 fold and 0.7 fold.
